Laboratory results taken from patent US11083728B2, “Compositions of cyclin dependent kinase 7 (CDK7) inhibitor” (Syros Pharmaceuticals, Inc., priority 2017, dated 2021).
In brackets after ≈: the same amount, converted by molar mass. Where two headings read alike, the source gives them in different places.

How the values were obtained:
Assay type in all cases: physicochemical
[1] = Equilibrium solubility in various pharmaceutical excipients
[2] = Infusion solution stability in 0.9% Sodium Chloride for Injection; settings: for Change in concentration: initial vs 4 hours at ambient temperature and light
Description: For the infusion solution stability study, duplicate dilutions of the reconstituted Compound 1 in 0.9% Sodium Chloride for Injection, LISP to provide the low (0.01 mg/mL) and high dose (0.6 mg/mL) were prepared. Infusion bags and sets used were made of polyolefin and polyethylene-lined respectively. To bracket the concentrations to be used in the clinic, two concentrations (0.01 mg/mL and 0.6 mg/mL of Compound 1) representing lowest and highest doses were selected. The stability of low and high dose infusion bag dilution is summarized in Table 3 and Table 4, respectively.

[3] = Stability of reconstituted solution of the particulate composition (5 mg/mL)
Description: The stability of the reconstituted solution of the particulate composition of Compound 1 of Example 1 was determined up to 4 hours. Duplicate vials of Compound 1 were reconstituted each with 5 mL of Water for Injection, USP.

[4] = Long-term storage stability in co-solvents PEG 300 and PEG 400
[5] = infusion solution 0.01 mg/mL, 4 hours
[6] = infusion solution 0.01 mg/mL, Initial
[7] = infusion solution 0.6 mg/mL, 4 hours
[8] = infusion solution 0.6 mg/mL, Initial
[9] = reconstituted solution 5 mg/mL, 4 hours
[10] = reconstituted solution 5 mg/mL, Initial
[11] = reconstituted solution, initial vs 4 hours at room temperature and light

Q: For `CN(C)C/C=C/C(=O)Nc1ccc(C(=O)N[C@@]2(C)CCC[C@@H](Nc3ncc(Cl)c(-c4c[nH]c5ccccc45)n3)C2)nc1` [Compound 1, N-((1S,3R)-3-(5-chloro-4-(1H-indol-3-yl)pyrimidin-2-ylamino)-1-methylcyclohexyl)-5-((E)-4-(dimethylamino)but-2-enamido)picolinamide], which solubility ([1]; 50 mM Borate pH 10) is on record?
A: <LOQ

Q: And the solubility ([1]; 50 mM KCl, pH 2, simulated gastric fluid, thermodynamic from solid, 50 mM KCl, pH 2, read-out: Solubility)?
A: 3600 µg/mL (≈ 6.13 mM)

Q: And the solubility ([1]; 50 mM Phosphate pH 8)?
A: <LOQ

Q: What about the solubility ([1]; 50 mM citrate, pH 4, aqueous buffer, thermodynamic from solid, 50 mM Citrate pH 4, read-out: Solubility) of the same compound?
A: 3.7 µg/mL (≈ 0.0063 mM)

Q: What about the solubility ([1]; 50 mM phosphate buffer, pH 6, aqueous buffer, thermodynamic from solid, 50 mM Phosphate pH 6, read-out: Solubility) of the same compound?
A: 1.9 µg/mL (≈ 0.00324 mM)

Q: And the solubility ([1]; 10% Captisol in phosphate buffer, pH 5.5, aqueous with cosolvent or surfactant or cyclodextrin, thermodynamic from solid, 10% Captisol, pH 5.5 (phosphate buffer), read-out: Solubility)?
A: 4600 µg/mL (≈ 7.83 mM)

Q: What about the solubility ([1]; 20% Captisol in phosphate buffer, pH 5.5, aqueous with cosolvent or surfactant or cyclodextrin, thermodynamic from solid, 20% Captisol, pH 5.5 (phosphate buffer), read-out: Solubility) of the same compound?
A: 5900 µg/mL (≈ 10 mM)

Q: What about the solubility ([1]; 20% Captisol, 0.1% Tween 80, pH adjusted with HCl, pH 3.5, aqueous with cosolvent or surfactant or cyclodextrin, thermodynamic from solid, 20% Captisol, 0.1% Tween 80, pH 3.5, (HCl), read-out: Solubility) of the same compound?
A: > 10000 µg/mL

Q: And the “Solubility (in words)” value ([1]; Captisol, especially with acidic conditions (pH 3-4) and Tween 80)?
A: good solubility

Q: And the solubility ([1]; PEG 300)?
A: >19400 µg/mL

Q: What about the solubility ([1]; PEG 300, organic solvent or mixture, thermodynamic from solid, PEG 300, read-out: Solubility) of the same compound?
A: > 19000 µg/mL

Q: And the solubility ([1]; PEG 400)?
A: >20800 µg/mL

Q: What about the solubility ([1]; PEG 400, organic solvent or mixture, thermodynamic from solid, PEG 400, read-out: Solubility) of the same compound?
A: > 19000 µg/mL

Q: And the solubility ([1]; Sorensen phosphate Buffer)?
A: <LOQ

Q: What about the solubility ([1]; Tween 80, aqueous with cosolvent or surfactant or cyclodextrin, thermodynamic from solid, Tween 80, read-out: Solubility) of the same compound?
A: 18300 µg/mL (≈ 31.2 mM)

Q: And the solubility ([1]; dehydrated alcohol, organic solvent or mixture, thermodynamic from solid, Dehydrated Alcohol, read-out: Solubility)?
A: 3600 µg/mL (≈ 6.13 mM)

Q: What about the “Solubility (in words)” value ([1]; in water) of the same compound?
A: poorly soluble

Q: And the solubility ([1]; propylene glycol, organic solvent or mixture, thermodynamic from solid, Propylene Glycol, read-out: Solubility)?
A: 4000 µg/mL (≈ 6.81 mM)

Q: What about the solubility ([1]; t-butanol, organic solvent or mixture, thermodynamic from solid, t-Butanol, read-out: Solubility) of the same compound?
A: 3200 µg/mL (≈ 5.45 mM)

Q: And the solubility ([1]; water, thermodynamic from solid, Water, read-out: Solubility)?
A: 0.12 µg/mL (≈ 0.000204 mM)

Q: And the Change in concentration ([2]; high dose (0.6 mg/mL))?
A: no changes

Q: And the Appearance [2, 5]?
A: Yellowish Clear solution

Q: What about the “Compound 1 concentration” value [2, 5] of the same compound?
A: 0.0099 mg/mL

Q: What about the pH [2, 5] of the same compound?
A: 8.1

Q: And the Appearance [2, 6]?
A: Yellowish Clear solution

Q: And the “Compound 1 concentration” value [2, 6]?
A: 0.0096 mg/mL

Q: What about the pH [2, 6] of the same compound?
A: 7.6

Q: What about the Appearance [2, 7] of the same compound?
A: Yellowish Clear

Q: And the “Compound 1 concentration” value [2, 7]?
A: 0.551 mg/mL

Q: What about the “Impurities, RRT 1.03” value [2, 7] of the same compound?
A: RRT 1.03 = 0.71% a/a

Q: And the “Impurities, RRT 1.22” value [2, 7]?
A: RRT 1.22 = 0.06% a/a

Q: And the “Impurities, RRT 1.43” value [2, 7]?
A: RRT = 1.43 = 0.51% a/a

Q: And the “Impurities, RRT 1.60” value [2, 7]?
A: RRT = 1.60 = 0.08% a/a

Q: What about the “Impurities, Total” value [2, 7] of the same compound?
A: Total = 1.4% a/a

Q: What about the pH [2, 7] of the same compound?
A: 3.6

Q: And the Appearance [2, 8]?
A: Yellowish Clear

Q: And the “Compound 1 concentration” value [2, 8]?
A: 0.552 mg/mL

Q: And the “Impurities, RRT 1.03” value [2, 8]?
A: RRT 1.03 = 0.71% a/a

Q: And the “Impurities, RRT 1.22” value [2, 8]?
A: RRT 1.22 = 0.06% a/a

Q: What about the “Impurities, RRT 1.43” value [2, 8] of the same compound?
A: RRT = 1.43 = 0.51% a/a

Q: And the “Impurities, RRT 1.60” value [2, 8]?
A: RRT = 1.60 = 0.08% a/a

Q: And the “Impurities, Total” value [2, 8]?
A: Total = 1.4% a/a

Q: And the pH [2, 8]?
A: 3.6

Q: What about the Change in concentration ([2]; low dose (0.01 mg/mL)) of the same compound?
A: no changes

Q: What about the “Change in pH” value ([2]; low dose dilution (0.01 mg/mL), initial vs 4 hours) of the same compound?
A: increase

Q: What about the “Compound 1 concentration” value [3, 9] of the same compound?
A: 4.48 mg/mL

Q: And the “Impurities, RRT 1.04” value [3, 9]?
A: RRT 1.04 = 0.70% a/a

Q: What about the “Impurities, RRT 1.23” value [3, 9] of the same compound?
A: RRT 1.23 = 0.07% a/a

Q: What about the “Impurities, RRT 1.44” value [3, 9] of the same compound?
A: RRT 1.44 = 0.59% a/a

Q: And the “Impurities, RRT 1.47” value [3, 9]?
A: RRT 1.47 = 0.42% a/a

Q: And the “Impurities, RRT 1.61” value [3, 9]?
A: RRT 1.61 = 0.09% a/a

Q: What about the “Impurities, Total” value [3, 9] of the same compound?
A: Total = 1.9% a/a

Q: What about the pH [3, 9] of the same compound?
A: 3.2

Q: What about the Appearance ([3]; reconstituted solution 5 mg/mL, 4 hours, room temperature and light) of the same compound?
A: Yellowish Clear solution

Q: What about the “Compound 1 concentration” value [3, 10] of the same compound?
A: 4.75 mg/mL

Q: And the “Impurities, RRT 1.04” value [3, 10]?
A: RRT 1.04 = 0.71% a/a

Q: What about the “Impurities, RRT 1.23” value [3, 10] of the same compound?
A: RRT 1.23 = 0.10% a/a

Q: And the “Impurities, RRT 1.46” value [3, 10]?
A: RRT 1.46 = 0.55% a/a

Q: And the “Impurities, RRT 1.48” value [3, 10]?
A: RRT1.48 = 0.4 % a/a

Q: And the “Impurities, RRT 1.62” value [3, 10]?
A: RRT1.62 = 0.0 % a/a

Q: What about the “Impurities, Total” value [3, 10] of the same compound?
A: Total = 1.9% a/a

Q: And the pH [3, 10]?
A: 3.2

Q: What about the Appearance ([3]; reconstituted solution 5 mg/mL, Initial, n = 2) of the same compound?
A: Yellowish Clear solution

Q: What about the “Change in appearance and pH” value [3, 11] of the same compound?
A: unchanged

Q: What about the “Change in concentration of Compound 1” value [3, 11] of the same compound?
A: slight decrease

Q: And the Change in impurities [3, 11]?
A: no measurable change

Q: What about the “Stability on long-term storage” value [4] of the same compound?
A: unstable
